How the values were obtained:
[1] = system: human skin in organ culture; settings: cited from earlier work
[2] = Rhino mouse topical treatment: spleen size; type: in vivo; settings: 0.1% topical, 21 days
Source text: Mouse skin is rather thinner than human skin, and topically applied drugs tend to get into the circulation more readily when applied to mice, especially the hairless mutants, than to humans.

[3] = system: NB4 cells (PML cell line); test: NB4 cell differentiation (morphology, phase contrast); type: cell-based; settings: 50 μg/mL, 48 hours
Method: FIGS. 8A & FIG. 8B: Morphological change with Compound 2. Control NB4 cells are shown after 48 hours incubation in culture medium in FIG. 8A.
Concentration-dependent and time-dependent growth inhibition studies were carried out in vitro. Cells were plated in wells of a 24-well dish at 5×10^4 cells per well in maintenance media (DMEM+2% fetal bovine serum. Each of the experimental retinoids were added at the desired concentrations and the cells incubated for 3 days. At the end of the incubation period, cells were counted using an electronic particle counter. Viability was determined by exclusion of trypan blue. To assess differentiation, cells were treated for three days with either the desired agent (or control) in culture medium. At the end of the incubation period, the cells were photographed under phase-contrast microscopy.
Inhibition could be seen at both 48 and 72 hours of incubation. […] The polarized, flattened morphology is evidence of differentiation. These studies, thus, indicate that the experimental retinoids have potential as anti-cancer agents.

CC1=C(/C=C/C(C)=C/C=C/C(C)=C/C(=O)O)C(C)(C)CCC1 [ATRA, all-trans retinoic acid, reference compound]
effect on collagen-degrading enzyme MMP-1 (collagenase 1) ([1]; human skin organ culture model): inhibited the major collagen-degrading enzyme (MMP-1, collagenase 1)
procollagen I production ([1]; human skin organ culture model): induced procollagen I production
up-regulation of the pro-inflammatory cytokines that underlie retinoid-induced skin irritation ([1]; past studies): as expected, did
spleen size (splenomegaly) [2]: very marked splenomegaly

CC1=C(/C=C/C(C)=C\C=C\C(C)=C\C(=O)N(C)CC(=O)c2ccccc2)C(C)(C)CCC1 [Example 2, (2E,4E 6Z,8E)-N,3,7-trimethyl—N-(2-oxo-2-phenylethyl)-9-(2,6,6-trimethylcyclohex-1-en-1-yl)nona-2,4,6,8-tetraenamide]
morphological change (evidence of differentiation) [3]: polarized and flattened

From patent US11148998B2, “Dimethyl-nonatetraenyl-trimethyl-cyclohexyl compounds and uses thereof” (The Regents of the University of Michigan, priority 2017, dated 2021)
